Measured values reported in the supplement of paper PMC10307832.

Assays:
Assay in all cases: relative viability (nuclei count vs DMSO), 5 days (fraction); higher = more cells survive
ChaGo-K-1 = test system: ChaGo-K-1
Outline: (§1)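 Dosing by pin tool came one day after lung cancer cell lines were seeded in 1536-well plates, using either one drug or a fixed anchor-drug dose plus five library-drug doses (not always all listed) in √10 steps. After 5 days, nuclei were counted on 4× images. Relative viability is treated-well nuclei count divided by vehicle-well nuclei count, and values are medians of duplicate plates.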

EKVX = test system: EKVX
Outline: as §1

EMC-BAC-2 = test system: EMC-BAC-2
Outline: as §1

EPLC-272H = test system: EPLC-272H
Outline: as §1

HCC-78 = test system: HCC-78
Outline: as §1

HCC-827 = test system: HCC-827
Outline: as §1

LCLC-103H = test system: LCLC-103H
Outline: as §1

LK-2 = test system: LK-2
Outline: as §1

LU99A = test system: LU99A
Outline: as §1

LXF-289 = test system: LXF-289
Outline: as §1

NCI-H1666 = test system: NCI-H1666
Outline: as §1

NCI-H1975 = test system: NCI-H1975
Outline: as §1

NCI-H2126 = test system: NCI-H2126
Outline: as §1

NCI-H2342 = test system: NCI-H2342
Outline: as §1

NCI-H23 = test system: NCI-H23
Outline: as §1

NCI-H2405 = test system: NCI-H2405
Outline: as §1

NCI-H322M = test system: NCI-H322M
Outline: as §1

PC-14 = test system: PC-14
Outline: as §1

RERF-LC-KJ = test system: RERF-LC-KJ
Outline: as §1

SK-LU-1 = test system: SK-LU-1
Outline: as §1

SW 1573 = test system: SW 1573
Outline: as §1

SW 900 = test system: SW 900
Outline: as §1

## COc1nc(C)cnc1NS(=O)(=O)c1cccnc1-c1ccc(-c2nnco2)cc1 [Zibotentan] + CC(=O)c1c(C)c2cnc(Nc3ccc(N4CCNCC4)cn3)nc2n(C2CCCC2)c1=O [Palbociclib] (partner 0.5 µM)
ChaGo-K-1; first compound 0.08 µM
  relative viability: 0.965
ChaGo-K-1; first compound 0.253 µM
  relative viability: 0.945
ChaGo-K-1; first compound 0.8 µM
  relative viability: 0.947
ChaGo-K-1; first compound 2.53 µM
  relative viability: 0.972
EKVX; first compound 0.08 µM
  relative viability: 0.276
EKVX; first compound 0.253 µM
  relative viability: 0.354
EKVX; first compound 0.8 µM
  relative viability: 0.37
EKVX; first compound 2.53 µM
  relative viability: 0.5
EMC-BAC-2; first compound 0.08 µM
  relative viability: 0.532
EMC-BAC-2; first compound 0.8 µM
  relative viability: 0.546
EMC-BAC-2; first compound 2.53 µM
  relative viability: 0.503
EPLC-272H; first compound 0.08 µM
  relative viability: 0.348
EPLC-272H; first compound 0.253 µM
  relative viability: 0.246
EPLC-272H; first compound 0.8 µM
  relative viability: 0.366
EPLC-272H; first compound 2.53 µM
  relative viability: 0.33
HCC-78; first compound 0.08 µM
  relative viability: 0.464
HCC-78; first compound 0.253 µM
  relative viability: 0.488
HCC-78; first compound 0.8 µM
  relative viability: 0.512
HCC-78; first compound 2.53 µM
  relative viability: 0.512
HCC-827; first compound 0.08 µM
  relative viability: 0.437
HCC-827; first compound 0.253 µM
  relative viability: 0.49
HCC-827; first compound 0.8 µM
  relative viability: 0.454
HCC-827; first compound 2.53 µM
  relative viability: 0.487
LCLC-103H; first compound 0.08 µM
  relative viability: 0.459
LCLC-103H; first compound 0.253 µM
  relative viability: 0.477
LCLC-103H; first compound 0.8 µM
  relative viability: 0.449
LCLC-103H; first compound 2.53 µM
  relative viability: 0.442
LK-2; first compound 0.08 µM
  relative viability: 0.609
LK-2; first compound 0.253 µM
  relative viability: 0.544
LK-2; first compound 0.8 µM
  relative viability: 0.62
LK-2; first compound 2.53 µM
  relative viability: 0.609
LU99A; first compound 0.08 µM
  relative viability: 0.394
LU99A; first compound 0.253 µM
  relative viability: 0.442
LU99A; first compound 0.8 µM
  relative viability: 0.462
LU99A; first compound 2.53 µM
  relative viability: 0.402
LXF-289; first compound 0.08 µM
  relative viability: 0.577
LXF-289; first compound 0.253 µM
  relative viability: 0.55
LXF-289; first compound 0.8 µM
  relative viability: 0.592
LXF-289; first compound 2.53 µM
  relative viability: 0.61
NCI-H1666; first compound 0.08 µM
  relative viability: 0.682
NCI-H1666; first compound 0.253 µM
  relative viability: 0.594
NCI-H1666; first compound 0.8 µM
  relative viability: 0.694
NCI-H1666; first compound 2.53 µM
  relative viability: 0.692
NCI-H1975; first compound 0.08 µM
  relative viability: 0.517
NCI-H1975; first compound 0.253 µM
  relative viability: 0.526
NCI-H1975; first compound 0.8 µM
  relative viability: 0.553
NCI-H1975; first compound 2.53 µM
  relative viability: 0.596
NCI-H2126; first compound 0.08 µM
  relative viability: 0.316
NCI-H2126; first compound 0.253 µM
  relative viability: 0.338
NCI-H2126; first compound 0.8 µM
  relative viability: 0.34
NCI-H2126; first compound 2.53 µM
  relative viability: 0.362
NCI-H2342; first compound 0.08 µM
  relative viability: 0.507
NCI-H2342; first compound 0.253 µM
  relative viability: 0.557
NCI-H2342; first compound 0.8 µM
  relative viability: 0.558
NCI-H2342; first compound 2.53 µM
  relative viability: 0.506
NCI-H23; first compound 0.08 µM
  relative viability: 0.586
NCI-H23; first compound 0.253 µM
  relative viability: 0.496
NCI-H23; first compound 0.8 µM
  relative viability: 0.53
NCI-H23; first compound 2.53 µM
  relative viability: 0.527
NCI-H2405; first compound 0.08 µM
  relative viability: 0.544
NCI-H2405; first compound 0.253 µM
  relative viability: 0.546
NCI-H2405; first compound 0.8 µM
  relative viability: 0.544
NCI-H2405; first compound 2.53 µM
  relative viability: 0.55
NCI-H322M; first compound 0.08 µM
  relative viability: 0.465
NCI-H322M; first compound 0.253 µM
  relative viability: 0.408
NCI-H322M; first compound 0.8 µM
  relative viability: 0.49
NCI-H322M; first compound 2.53 µM
  relative viability: 0.521
PC-14; first compound 0.08 µM
  relative viability: 0.68
PC-14; first compound 0.253 µM
  relative viability: 0.459
PC-14; first compound 0.8 µM
  relative viability: 0.607
PC-14; first compound 2.53 µM
  relative viability: 0.519
RERF-LC-KJ; first compound 0.08 µM
  relative viability: 1.1
RERF-LC-KJ; first compound 0.253 µM
  relative viability: 0.999
RERF-LC-KJ; first compound 0.8 µM
  relative viability: 1.08
RERF-LC-KJ; first compound 2.53 µM
  relative viability: 1.14
SK-LU-1; first compound 0.08 µM
  relative viability: 0.416
SK-LU-1; first compound 0.253 µM
  relative viability: 0.389
SK-LU-1; first compound 0.8 µM
  relative viability: 0.367
SK-LU-1; first compound 2.53 µM
  relative viability: 0.367
SW 1573; first compound 0.08 µM
  relative viability: 0.421
SW 1573; first compound 0.8 µM
  relative viability: 0.385
SW 1573; first compound 2.53 µM
  relative viability: 0.363
SW 900; first compound 0.08 µM
  relative viability: 0.541
SW 900; first compound 0.253 µM
  relative viability: 0.565
SW 900; first compound 0.8 µM
  relative viability: 0.487
SW 900; first compound 2.53 µM
  relative viability: 0.564
